According to patent publication US9493446B2, “Orexin receptor antagonists which are [ortho bi-(hetero-)aryl]-[2-(meta bi-(hetero-)aryl)-pyrrolidin-1-yl]-methanone derivatives” (Actelion Pharmaceuticals Ltd, priority 2012, dated 2016):
Like-named read-outs stand apart in the source and are kept apart here.

Experiments:
[1] = biological target: orexin-1 (Homo sapiens (Human), UniProt O43613); assay: Intracellular calcium measurement (FLIPR), CHO cells expressing human orexin-1 receptor, 3 nM orexin-A; format: cell-based; conditions: read-out: IC50 OX1
Procedure, shortened: (§1)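 Fluo-4 AM-loaded CHO cells; antagonist preincubation 120 min, then 3 nM orexin-A (final) in HBSS/0.1% BSA/20 mM HEPES. FLIPR read at 1 s intervals; peak height vs. agonist-plus-vehicle control → IC50.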

[2] = biological target: human orexin-2 receptor (Homo sapiens (Human), UniProt O43614); assay: Intracellular calcium measurement (FLIPR), CHO cells expressing human orexin-2 receptor, 3 nM orexin-A; format: cell-based; conditions: read-out: IC50 OX2
Procedure, shortened: as §1

[3] = CHO cells expressing human orexin-1 receptor, FLIPR, 3 nM orexin-A, geometric mean if determined several times
[4] = CHO cells expressing human orexin-2 receptor, FLIPR, 3 nM orexin-A, geometric mean if determined several times

Chain of orexin-1 (O43613 whole entry): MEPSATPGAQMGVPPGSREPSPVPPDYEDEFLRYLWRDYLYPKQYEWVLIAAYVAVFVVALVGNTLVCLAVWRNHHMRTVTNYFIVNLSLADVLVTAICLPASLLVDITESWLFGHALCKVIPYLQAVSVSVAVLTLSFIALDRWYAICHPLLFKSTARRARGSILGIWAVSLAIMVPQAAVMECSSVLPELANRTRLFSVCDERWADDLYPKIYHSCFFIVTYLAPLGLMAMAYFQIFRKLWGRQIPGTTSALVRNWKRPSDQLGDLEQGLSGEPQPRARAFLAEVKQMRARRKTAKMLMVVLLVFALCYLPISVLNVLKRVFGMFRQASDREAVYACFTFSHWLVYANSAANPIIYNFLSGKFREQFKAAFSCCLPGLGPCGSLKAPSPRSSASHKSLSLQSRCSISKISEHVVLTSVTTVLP
Chain of human orexin-2 receptor (O43614 whole entry): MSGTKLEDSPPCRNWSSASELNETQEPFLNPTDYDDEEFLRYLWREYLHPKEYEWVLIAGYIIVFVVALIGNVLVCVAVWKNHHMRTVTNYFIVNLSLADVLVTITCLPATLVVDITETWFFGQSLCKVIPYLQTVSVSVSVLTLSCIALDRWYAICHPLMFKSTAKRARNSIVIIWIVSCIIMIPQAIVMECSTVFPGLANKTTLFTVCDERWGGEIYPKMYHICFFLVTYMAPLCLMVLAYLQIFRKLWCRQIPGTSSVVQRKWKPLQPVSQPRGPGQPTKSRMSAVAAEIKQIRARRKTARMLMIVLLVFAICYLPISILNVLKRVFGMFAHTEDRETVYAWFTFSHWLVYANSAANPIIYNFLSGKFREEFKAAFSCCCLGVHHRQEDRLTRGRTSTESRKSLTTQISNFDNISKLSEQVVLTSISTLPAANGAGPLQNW

IC50 [1, 3] [nM]	IC50 [2, 4] [nM]	Compound	IC50 [2] [nM]	IC50 [1] [nM]
309	19	Cc1ccc(-c2noc([C@@H]3CCCN3C(=O)c3cc(C)ccc3-n3nccn3)n2)c(C)c1 [compound 81, {(S)-2-[3-(2,4-Dimethyl-phenyl)-[1,2,4]oxadiazol-5-yl]-pyrrolidin-1-yl}-(5-methyl-2-[1,2,3]triazol-2-yl-phenyl)-methanone]		
8	22	Cc1ccc(-n2nccn2)c(C(=O)N2CCC[C@H]2c2nc(-c3cccnc3OC(C)C)no2)c1 [compound 71, {(S)-2-[3-(2-Isopropoxy-pyridin-3-yl)-[1,2,4]oxadiazol-5-yl]-pyrrolidin-1-yl}-(5-methyl-2-[1,2,3]triazol-2-yl-phenyl)-methanone]		
49	30	Cc1ccc(-c2ccccn2)c(C(=O)N2CCC[C@H]2c2nc(-c3ccccc3OC(F)(F)F)no2)c1 [compound 138, (5-Methyl-2-pyridin-2-yl-phenyl)-{(S)-2-[3-(2-trifluoromethoxy-phenyl)-[1,2,4]oxadiazol-5-yl]-pyrrolidin-1-yl}-methanone]		
414	30	COc1ncccc1-c1cc([C@@H]2CCCN2C(=O)c2cc(C)ccc2-n2nccn2)on1 [compound 426, {(S)-2-[3-(2-Methoxy-pyridin-3-yl)-isoxazol-5-yl]-pyrrolidin-1-yl}-(5-methyl-2-[1,2,3]triazol-2-yl-phenyl)-methanone]		
352	99	CCOc1ccccc1-c1noc([C@@H]2CCCN2C(=O)c2nc(C)ccc2-n2nccn2)n1 [compound 259, {(S)-2-[3-(2-Ethoxy-phenyl)-[1,2,4]oxadiazol-5-yl]-pyrrolidin-1-yl}-(6-methyl-3-[1,2,3]triazol-2-yl-pyridin-2-yl)-methanone]		
21	5	CCOc1c(F)cccc1-c1noc([C@@H]2CCCN2C(=O)c2cc(OC)c(C)cc2-n2nccn2)n1 [compound 291, {(S)-2-[3-(2-Ethoxy-3-fluoro-phenyl)-[1,2,4]oxadiazol-5-yl]-pyrrolidin-1-yl}-(5-methoxy-4-methyl-2-[1,2,3]triazol-2-yl-phenyl)-methanone]		
5020	3000	O=C(c1ncoc1-c1ccccc1)N1CCC[C@H]1c1nnc(-c2ccccc2OC(F)(F)F)[nH]1 [compound 484, (5-Phenyl-oxazol-4-yl)-{(S)-2-[5-(2-trifluoromethoxy-phenyl)-4H-[1,2,4]triazol-3-yl]-pyrrolidin-1-yl}-methanone]		
22	7	CCOc1ncccc1-c1noc([C@@H]2CCCN2C(=O)c2cc(C)ccc2-n2nccn2)n1 [compound 41, {(S)-2-[3-(2-Ethoxy-pyridin-3-yl)-[1,2,4]oxadiazol-5-yl]-pyrrolidin-1-yl}-(5-methyl-2-[1,2,3]triazol-2-yl-phenyl)-methanone]		
874	131	COc1ccc(-c2noc([C@@H]3CCCN3C(=O)c3cc(C)ccc3-n3nccn3)n2)cc1OC [compound 82, {(S)-2-[3-(3,4-Dimethoxy-phenyl)-[1,2,4]oxadiazol-5-yl]-pyrrolidin-1-yl}-(5-methyl-2-[1,2,3]triazol-2-yl-phenyl)-methanone]		
99	73	COc1ccc(-n2cccn2)c(C(=O)N2CCC[C@H]2c2nc(-c3ccccc3OC(F)(F)F)no2)c1 [compound 157, (5-Methoxy-2-pyrazol-1-yl-phenyl)-{(S)-2-[3-(2-trifluoromethoxy-phenyl)-[1,2,4]oxadiazol-5-yl]-pyrrolidin-1-yl}-methanone]		
505	105	CCOc1ccccc1-c1noc([C@@H]2CCCN2C(=O)c2cc(F)ccc2-n2nccn2)n1 [compound 263, {(S)-2-[3-(2-Ethoxy-phenyl)-[1,2,4]oxadiazol-5-yl]-pyrrolidin-1-yl}-(5-fluoro-2-[1,2,3]triazol-2-yl-phenyl)-methanone]		
2290	955	COc1cc(-c2noc([C@@H]3CCCN3C(=O)c3cc(C)ccc3-n3nccn3)n2)ccn1 [compound 32, {(S)-2-[3-(2-Methoxy-pyridin-4-yl)-[1,2,4]oxadiazol-5-yl]-pyrrolidin-1-yl}-(5-methyl-2-[1,2,3]triazol-2-yl-phenyl)-methanone]		
307	32	COc1c(F)cccc1-c1noc([C@@H]2CCCN2C(=O)c2cc(F)ccc2-n2nccn2)n1 [compound 200, {(S)-2-[3-(3-Fluoro-2-methoxy-phenyl)-[1,2,4]oxadiazol-5-yl]-pyrrolidin-1-yl}-(5-fluoro-2-[1,2,3]triazol-2-yl-phenyl)-methanone]		
27	4	CCOc1ccccc1-c1noc([C@@H]2CCCN2C(=O)c2cc(OC)c(C)cc2-n2nccn2)n1 [compound 258, {(S)-2-[3-(2-Ethoxy-phenyl)-[1,2,4]oxadiazol-5-yl]-pyrrolidin-1-yl}-(5-methoxy-4-methyl-2-[1,2,3]triazol-2-yl-phenyl)-methanone]		
23	8	CCOc1ncccc1-c1nnc([C@@H]2CCCN2C(=O)c2cc(Cl)c(C)cc2-n2nccn2)[nH]1 [compound 487, (5-Chloro-4-methyl-2-[1,2,3]triazol-2-yl-phenyl)-{(S)-2-[5-(2-ethoxy-pyridin-3-yl)-4H-[1,2,4]triazol-3-yl]-pyrrolidin-1-yl}-methanone]		
325	30	COc1cccc(-c2nc([C@@H]3CCCN3C(=O)c3cc(C)ccc3-n3nccn3)no2)c1C [compound 359, {(S)-2-[5-(3-Methoxy-2-methyl-phenyl)-[1,2,4]oxadiazol-3-yl]-pyrrolidin-1-yl}-(5-methyl-2-[1,2,3]triazol-2-yl-phenyl)-methanone]		
148	134	CCOc1ncccc1-c1noc([C@@H]2CCCN2C(=O)c2ccc(C)c(C)c2-n2nccn2)n1 [compound 273, (3,4-Dimethyl-2-[1,2,3]triazol-2-yl-phenyl)-{(S)-2-[3-(2-ethoxy-pyridin-3-yl)-[1,2,4]oxadiazol-5-yl]-pyrrolidin-1-yl}-methanone]		
28	23	CC(=O)n1cc(-c2noc([C@@H]3CCCN3C(=O)c3cc(C)ccc3-n3nccn3)n2)c2ccccc21 [Example 85, 1-(3-{5-[(S)-1-(5-Methyl-2-[1,2,3]triazol-2-yl-benzoyl)-pyrrolidin-2-yl]-[1,2,4]oxadiazol-3-yl}-indol-1-yl)-ethanone]		
56	21	CCOc1ncccc1-c1noc([C@@H]2CCCN2C(=O)c2cc(C)cc(C)c2-n2nccn2)n1 [compound 209, (3,5-Dimethyl-2-[1,2,3]triazol-2-yl-phenyl)-{(S)-2-[3-(2-ethoxy-pyridin-3-yl)-[1,2,4]oxadiazol-5-yl]-pyrrolidin-1-yl}-methanone]		
549	132	O=C(c1ccccc1-n1nccn1)N1CCC[C@H]1c1nc(-c2ccccc2C(F)(F)F)no1 [compound 178, (2-[1,2,3]Triazol-2-yl-phenyl)-{(S)-2-[3-(2-trifluoromethyl-phenyl)-[1,2,4]oxadiazol-5-yl]-pyrrolidin-1-yl}-methanone]		
1140	375	CCOc1ccccc1-c1nnc([C@@H]2CCCN2C(=O)c2cc(C)ccc2-n2nccn2)o1 [Example 454, {(S)-2-[5-(2-Ethoxy-phenyl)-[1,3,4]oxadiazol-2-yl]-pyrrolidin-1-yl}-(5-methyl-2-[1,2,3]triazol-2-yl-phenyl)-methanone]		

Compound	IC50 [1, 3] [nM]	IC50 [2, 4] [nM]	IC50 [2] [nM]	IC50 [1] [nM]
Cc1ccc(-n2nccn2)c(C(=O)N2CCC[C@H]2c2nnc(-c3cccc(Cl)c3C)o2)c1 [compound 440]	141	21		
Cc1ccc(-n2nccn2)c(C(=O)N2CCC[C@H]2c2ncc(-c3cccc(Cl)c3)[nH]2)c1 [compound 523]	428	103		
Cc1cc(-n2nccn2)c(C(=O)N2CCC[C@@]2(C)c2nnc(-c3cccc(Cl)c3C)[nH]2)cc1Cl [compound 552]	9	7		
COc1ccccc1-c1nnc([C@@H]2CCCN2C(=O)c2cc(Cl)c(C)cc2-n2nccn2)[nH]1 [compound 469]	25		45	
Cc1c(Cl)cccc1-c1noc([C@@H]2CCCN2C(=O)c2ccc(C(F)(F)F)cc2-n2nccn2)n1 [compound 122]		221		933
Furan-3-yl-[(S)-2-(3-o-tolyl-[1,2,4]oxadiazol-5-yl)-pyrrolidin-1-yl]-methanone [Reference compound 6, reference compound]		27		21
O=C(c1cc(Cl)ccc1-n1nccn1)N1CCC[C@H]1c1noc(-c2ccccc2OC(F)(F)F)n1 [compound 377]	68	15		
CCOc1ncccc1-c1nc([C@@H]2CCCN2C(=O)c2ccc(C)cc2-n2nccn2)no1 [compound 345]	33	11		
COc1cc(C(=O)N2CCC[C@H]2c2noc(-c3cc(C)ccc3C)n2)c(-n2nccn2)cc1Cl [compound 408]	31	2		
COc1cccc(-c2nc([C@@H]3CCCN3C(=O)c3cc(Cl)ccc3-n3nccn3)no2)c1C [compound 361]	127	61		
Cc1ccc(-n2nccn2)c(C(=O)N2CCC[C@H]2c2nnc(-c3cccc(Cl)c3C)[nH]2)c1 [compound 493]	1140		29	
O=C(c1cc(Cl)ccc1-n1nccn1)N1CCC[C@H]1c1nc(-c2ccccc2OC(F)F)no1 [compound 186]	138	17		
COc1c(F)cccc1-c1nnc([C@@H]2CCCN2C(=O)c2cc(Cl)c(C)cc2-n2nccn2)[nH]1 [compound 475]		2		11
Cc1ccc(C(=O)N2CCC[C@H]2c2nc(-c3cccc(Cl)c3C)no2)c(-n2nccn2)c1 [compound 96]	109	12		
Cc1onc(-c2ccccc2Cl)c1C(=O)N1CCC[C@H]1c1nc(-c2cccc(Cl)c2C)no1 [Ref 7]	529	593		
